Patent publication US20160318987A1 (MEDIMMUNE LIMITED, priority 2013, published 2016)
Where a SMILES comes first, the peptide text is derived from it. [ ]: non-standard residue; d: D form. αMeF = C[C@](N)(Cc1ccccc1)C(=O)O; Aib = CC(C)(N)C(=O)O

How the values were obtained:
hGIP-R = target: T1, hGIP-R (Homo sapiens, UniProt P48546); test: cAMP functional assay, cells expressing human GIP receptor (primary assay); type: cell-based; conditions: n = 2
T1 construct: expressed in transfected cells
T1 sequence (P48546 22-466): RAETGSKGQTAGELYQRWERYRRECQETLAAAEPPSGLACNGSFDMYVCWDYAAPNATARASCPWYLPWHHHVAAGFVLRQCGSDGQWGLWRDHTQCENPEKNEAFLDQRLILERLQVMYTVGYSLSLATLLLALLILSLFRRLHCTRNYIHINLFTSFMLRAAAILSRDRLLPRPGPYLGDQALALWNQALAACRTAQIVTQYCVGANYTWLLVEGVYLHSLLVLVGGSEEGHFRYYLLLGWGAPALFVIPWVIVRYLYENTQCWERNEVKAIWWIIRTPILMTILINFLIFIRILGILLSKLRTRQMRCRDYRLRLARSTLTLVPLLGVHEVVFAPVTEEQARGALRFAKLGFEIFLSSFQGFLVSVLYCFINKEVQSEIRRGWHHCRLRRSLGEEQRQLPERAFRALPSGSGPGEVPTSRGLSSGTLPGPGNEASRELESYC
Description: (§1) The biological activities/receptor potencies of the synthetic GLP-1 peptides described herein are suitably tested for biological activity, e.g., stimulation of one or more cellular receptor responses. Stable cell lines expressing human, mouse, rat, or dog GLP-1 receptor (GLP-1R), glucagon receptor (GCGR) or glucose-dependent insulinotropic peptide (gastric inhibitory polypeptide) receptor (GIPR) are generated in HEK293 cells or CHO cells by standard methods.
(§2) cAMP assays were performed using “assay buffer”: Assay Buffer: 0.1% BSA (Sigma #A3059) in HBSS (Sigma #H8264) with 25 mM HEPES, pH 7.4 and containing 0.5 mM IBMX (Sigma #17018).
(§3) Low protein binding 384-well plates (Greiner #781280) are used to perform eleven 1 in 5 serial dilutions of test samples which are made in assay buffer. All sample dilutions are made in duplicate.
(§4) A frozen cryo-vial of cells expressing the receptor of interest is thawed rapidly in a water-bath, transferred to pre-warmed assay buffer and spun at 240× g for 5 minutes. Cells are re-suspended in assay buffer at a batch-dependent optimized concentration (e.g. hGCGR cells at 2×10^5 cells/ml, hGLP-1R and hGIPR cells at 1×10^5 cells /ml).
(§5) From the dilution plate, a 5 μL replica is stamped onto a black shallow-well u-bottom 384-well plate (Corning #3676). To this, 5 μL cell suspension is added and the plates incubated at room temperature for 30 minutes.
(§6) cAMP levels are measured using a commercially available cAMP dynamic 2 HTRF kit (Cisbio, Cat #62AM4PEJ), following the two step protocol as per manufacturer's recommendations. In brief; anti-cAMP cryptate (donor fluorophore) and cAMP-d2 (acceptor fluorophore) are made up separately by diluting each 1/20 in conjugate & lysis buffer provided in the kit. 5 μL anti-cAMP cryptate is added to all wells of the assay plate, and 5 μL cAMP-d2 is added to all wells except non-specific binding (NSB) wells, to which conjugate and lysis buffer are added. Plates are incubated at room temperature for one hour and then read on an Envision (Perkin Elmer) using excitation wavelength of 320 nm and emission wavelengths of 620 nm & 665 nm. EC50 values of the synthetic peptides determined in cAMP assays are then determined.

hGLP-1R = target: T2, hGLP-1R (Homo sapiens, UniProt P43220); test: cAMP functional assay, cells expressing human GLP-1 receptor (primary assay); type: cell-based; conditions: n = 2
T2 construct: expressed in transfected cells
T2 sequence (P43220 24-463): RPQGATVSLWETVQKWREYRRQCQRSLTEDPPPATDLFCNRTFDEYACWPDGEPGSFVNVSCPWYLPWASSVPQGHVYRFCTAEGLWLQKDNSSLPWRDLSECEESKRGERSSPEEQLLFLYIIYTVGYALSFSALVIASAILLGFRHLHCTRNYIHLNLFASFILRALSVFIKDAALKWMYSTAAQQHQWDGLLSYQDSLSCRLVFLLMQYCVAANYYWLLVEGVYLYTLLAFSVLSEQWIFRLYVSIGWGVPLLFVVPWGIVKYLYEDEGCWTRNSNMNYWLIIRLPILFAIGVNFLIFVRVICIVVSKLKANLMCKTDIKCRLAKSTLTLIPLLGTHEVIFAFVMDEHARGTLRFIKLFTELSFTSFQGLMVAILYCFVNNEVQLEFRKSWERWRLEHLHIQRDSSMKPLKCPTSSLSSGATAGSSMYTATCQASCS
Description: as §1, §2, §3, §4, §5, §6

EC50 (hGIP-R) [nM] | EC50 (hGLP-1R) [nM] | SMILES
102 | 0.0225 | CC[C@H](C)[C@H](NC(=O)[C@](C)(Cc1ccccc1)NC(=O)[C@H](CCC(=O)O)NC(=O)[C@H](CCCCN)NC(=O)[C@H](C)NC(=O)[C@H](C)NC(=O)[C@H](CCC(N)=O)NC(=O)CNC(=O)[C@H](CCC(=O)O)NC(=O)[C@H](CC(C)C)NC(=O)[C@](C)(Cc1ccccc1)NC(=O)[C@H](CO)NC(=O)[C@H](CO)NC(=O)[C@@H](NC(=O)[C@H](CC(=O)O)NC(=O)[C@H](CO)NC(=O)[C@@H](NC(=O)[C@](C)(Cc1ccccc1)NC(=O)[C@H](CO)NC(=O)CNC(=O)[C@H](CCC(=O)O)NC(=O)C(C)(C)NC(=O)[C@@H](N)Cc1c[nH]cn1)[C@@H](C)O)C(C)C)C(=O)N[C@@H](C)C(=O)N[C@@H](Cc1c[nH]c2ccccc12)C(=O)N[C@@H](CC(C)C)C(=O)N[C@H](C(=O)N[C@@H](CCCCN)C(=O)NCC(=O)N[C@@H](CCCNC(=N)N)C(N)=O)C(C)C [SEQ ID NO: 34, H-(Aib)^2-EG-(S)^5-(α-MeF)^6-TSDV^10 SS-(α-MeF)^13-LE^15 GQAAK^20 E-(α-MeF)^22-IAW^25 LVKGR^30] (H-H[Aib]EGS[αMeF]TSDVSS[αMeF]LEGQAAKE[αMeF]IAWLVKGR-NH2)
102 | 0.0201 | CC[C@H](C)[C@H](NC(=O)[C@H](Cc1ccccc1)NC(=O)[C@H](CCC(=O)O)NC(=O)[C@H](CCCCN)NC(=O)[C@H](C)NC(=O)[C@H](C)NC(=O)[C@H](CCC(N)=O)NC(=O)CNC(=O)[C@H](CCC(=O)O)NC(=O)[C@H](CC(C)C)NC(=O)[C@](C)(Cc1ccccc1)NC(=O)[C@H](CO)NC(=O)[C@H](CO)NC(=O)[C@@H](NC(=O)[C@H](CC(=O)O)NC(=O)[C@H](CO)NC(=O)[C@@H](NC(=O)[C@](C)(Cc1ccccc1)NC(=O)[C@H](CO)NC(=O)CNC(=O)[C@H](CCC(=O)O)NC(=O)C(C)(C)NC(=O)[C@@H](N)Cc1c[nH]cn1)[C@@H](C)O)C(C)C)C(=O)N[C@@H](C)C(=O)N[C@@](C)(Cc1ccccc1)C(=O)N[C@@H](CC(C)C)C(=O)N[C@H](C(=O)N[C@@H](CCCCN)C(=O)NCC(=O)N[C@@H](CCCNC(=N)N)C(N)=O)C(C)C [SEQ ID NO: 35, H-(Aib)^2-EG-(S)^5-(α-MeF)^6-TSDV^10 SS-(α-MeF)^13-LE^15 GQAAK^20 EFIA-(α-MeF)^25 LVKGR^30] (H-H[Aib]EGS[αMeF]TSDVSS[αMeF]LEGQAAKEFIA[αMeF]LVKGR-NH2)
102 | 0.191 | CC[C@H](C)[C@H](NC(=O)[C@](C)(Cc1ccccc1)NC(=O)[C@H](CCC(=O)O)NC(=O)[C@H](CCCCN)NC(=O)[C@H](C)NC(=O)[C@H](C)NC(=O)[C@H](CCC(N)=O)NC(=O)CNC(=O)[C@H](CCC(=O)O)NC(=O)[C@H](CC(C)C)NC(=O)[C@](C)(Cc1ccccc1)NC(=O)[C@H](CO)NC(=O)[C@H](CO)NC(=O)[C@@H](NC(=O)[C@H](CC(=O)O)NC(=O)[C@H](CO)NC(=O)[C@@H](NC(=O)[C@H](Cc1ccccc1)NC(=O)[C@H](CO)NC(=O)CNC(=O)[C@H](CCC(=O)O)NC(=O)C(C)(C)NC(=O)[C@@H](N)Cc1c[nH]cn1)[C@@H](C)O)C(C)C)C(=O)N[C@@H](C)C(=O)N[C@@](C)(Cc1ccccc1)C(=O)N[C@@H](CC(C)C)C(=O)N[C@H](C(=O)N[C@@H](CCCCN)C(=O)NCC(=O)N[C@@H](CCCNC(=N)N)C(N)=O)C(C)C [SEQ ID NO: 37, H-(Aib)^2-EG-(S)^5-FTSDV^10 SS-(α-MeF)^13-LE^15 GQAAK^20 E-(α-MeF)^22-IA-(α-MeF)^25 LVKGR^30] (H-H[Aib]EGSFTSDVSS[αMeF]LEGQAAKE[αMeF]IA[αMeF]LVKGR-NH2)

The next lines start with the compound.

SMILES | EC50 (hGIP-R) [nM] | EC50 (hGLP-1R) [nM]
CC[C@H](C)[C@H](NC(=O)[C@](C)(Cc1ccccc1)NC(=O)[C@H](CCC(=O)O)NC(=O)[C@H](CCCCN)NC(=O)[C@H](C)NC(=O)[C@H](C)NC(=O)[C@H](CCC(N)=O)NC(=O)CNC(=O)[C@H](CCC(=O)O)NC(=O)[C@H](CC(C)C)NC(=O)[C@H](Cc1ccc(O)cc1)NC(=O)[C@H](CO)NC(=O)[C@H](CO)NC(=O)[C@@H](NC(=O)[C@H](CC(=O)O)NC(=O)[C@H](CO)NC(=O)[C@@H](NC(=O)[C@](C)(Cc1ccccc1)NC(=O)[C@H](CO)NC(=O)CNC(=O)[C@H](CCC(=O)O)NC(=O)C(C)(C)NC(=O)[C@@H](N)Cc1c[nH]cn1)[C@@H](C)O)C(C)C)C(=O)N[C@@H](C)C(=O)N[C@@](C)(Cc1ccccc1)C(=O)N[C@@H](CC(C)C)C(=O)N[C@H](C(=O)N[C@@H](CCCCN)C(=O)NCC(=O)N[C@@H](CCCNC(=N)N)C(N)=O)C(C)C [SEQ ID NO: 36, H-(Aib)^2-EG-(S)^5-(α-MeF)^6-TSDV^10 SSYLE^15 GQAAK^20 E-(α-MeF)^22-IA-(α-MeF)^25 LVKGR^30] (H-H[Aib]EGS[αMeF]TSDVSSYLEGQAAKE[αMeF]IA[αMeF]LVKGR-NH2) | 102 | 0.0267
CC[C@H](C)[C@H](NC(=O)[C@](C)(Cc1ccccc1)NC(=O)[C@H](CCC(=O)O)NC(=O)[C@H](CCCCN)NC(=O)[C@H](C)NC(=O)[C@H](C)NC(=O)[C@H](CCC(N)=O)NC(=O)CNC(=O)[C@H](CCC(=O)O)NC(=O)[C@H](CC(C)C)NC(=O)[C@](C)(Cc1ccccc1)NC(=O)[C@H](CO)NC(=O)[C@H](CO)NC(=O)[C@@H](NC(=O)[C@H](CC(=O)O)NC(=O)[C@H](CO)NC(=O)[C@@H](NC(=O)[C@](C)(Cc1ccccc1)NC(=O)[C@H](CO)NC(=O)CNC(=O)[C@H](CCC(=O)O)NC(=O)C(C)(C)NC(=O)[C@@H](N)Cc1c[nH]cn1)[C@@H](C)O)C(C)C)C(=O)N[C@@H](C)C(=O)N[C@@](C)(Cc1ccccc1)C(=O)N[C@@H](CC(C)C)C(=O)N[C@H](C(=O)N[C@@H](CCCCN)C(=O)NCC(=O)NCC(N)=O)C(C)C [SEQ ID NO: 39, H-(Aib)^2-EG-(S)^5-(α-MeF)^6-TSDV^10 SS-(α-MeF)^13-LE^15 GQAAK^20 E-(α-MeF)^22-IA-(α-MeF)^25 LVKG-(G)^30] (H-H[Aib]EGS[αMeF]TSDVSS[αMeF]LEGQAAKE[αMeF]IA[αMeF]LVKGG-NH2) | 102 | 0.0322
CC[C@H](C)[C@H](NC(=O)[C@](C)(Cc1ccccc1)NC(=O)[C@H](CCC(=O)O)NC(=O)[C@H](CCCCN)NC(=O)[C@H](C)NC(=O)[C@H](C)NC(=O)[C@H](CCC(N)=O)NC(=O)CNC(=O)[C@H](CCC(=O)O)NC(=O)[C@H](CC(C)C)NC(=O)[C@](C)(Cc1ccccc1)NC(=O)[C@H](CO)NC(=O)[C@H](CO)NC(=O)[C@@H](NC(=O)[C@H](CC(=O)O)NC(=O)[C@H](CO)NC(=O)[C@@H](NC(=O)[C@](C)(Cc1ccccc1)NC(=O)[C@H](CO)NC(=O)CNC(=O)[C@H](CCC(=O)O)NC(=O)C(C)(C)NC(=O)[C@@H](N)Cc1c[nH]cn1)[C@@H](C)O)C(C)C)C(=O)N[C@@H](C)C(=O)N[C@@](C)(Cc1ccccc1)C(=O)N[C@@H](CC(C)C)C(=O)NC(C)(C)C(=O)N[C@@H](CCCCN)C(=O)NCC(=O)N[C@@H](CCCNC(=N)N)C(N)=O [SEQ ID NO: 40, H-(Aib)^2-EG-(S)^5-(α-MeF)^6-TSDV^10 SS-(α-MeF)^13-LE^15 GQAAK^20 E-(α-MeF)^22-IA-(α-MeF)^25 L-(Aib)27-KGR^30] (H-H[Aib]EGS[αMeF]TSDVSS[αMeF]LEGQAAKE[αMeF]IA[αMeF]L[Aib]KGR-NH2) | 102 | 0.254
